Assay results as given in PubChem BioAssay AID1963965 (Molecular Pharmacology Branch, DTP, NCI, 2024).

Tested on: 996289-038-R-J1-PDC spheroid viability
Assay: Anticancer human tumor 996289-038-R-J1-PDC patient-derived colon adenocarcinoma cell line growth inhibition [PI3K]
Conditions: spheroids with HUVEC and MSC; for IC50: curve of first compound; for viability, T/C: stronger effect = lower value
Method in brief: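 Viability of mixed-cell spheroids was determined after exposure to pairwise combinations, one partner being inavolisib, alpelisib, duvelisib or copanlisib. Highest tested concentration matched clinical Cmax where known and 10 microM where not, descending in half-log steps.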

[1] = second compound 0.00316 µM, first compound 0.0316 µM
[2] = second compound 0.00316 µM, first compound 0.1 µM
[3] = second compound 0.00316 µM, first compound 0.316 µM
[4] = second compound 0.00316 µM, first compound 1 µM
[5] = second compound 0.00316 µM, first compound 3.16 µM
[6] = second compound 0.00316 µM, first compound 10 µM
[7] = second compound 0.01 µM, first compound 0.0316 µM
[8] = second compound 0.01 µM, first compound 0.1 µM
[9] = second compound 0.01 µM, first compound 0.316 µM
[10] = second compound 0.01 µM, first compound 1 µM
[11] = second compound 0.01 µM, first compound 3.16 µM
[12] = second compound 0.01 µM, first compound 10 µM
[13] = second compound 0.0316 µM, first compound 0.0316 µM
[14] = second compound 0.0316 µM, first compound 0.1 µM
[15] = second compound 0.0316 µM, first compound 0.316 µM
[16] = second compound 0.0316 µM, first compound 1 µM
[17] = second compound 0.0316 µM, first compound 3.16 µM
[18] = second compound 0.0316 µM, first compound 10 µM
[19] = second compound 0.1 µM, first compound 0.0316 µM
[20] = second compound 0.1 µM, first compound 0.1 µM
[21] = second compound 0.1 µM, first compound 0.316 µM
[22] = second compound 0.1 µM, first compound 1 µM
[23] = second compound 0.1 µM, first compound 3.16 µM
[24] = second compound 0.1 µM, first compound 10 µM
[25] = second compound 0.316 µM, first compound 0.0316 µM
[26] = second compound 0.316 µM, first compound 0.1 µM
[27] = second compound 0.316 µM, first compound 0.316 µM
[28] = second compound 0.316 µM, first compound 1 µM
[29] = second compound 0.316 µM, first compound 3.16 µM
[30] = second compound 0.316 µM, first compound 10 µM
[31] = second compound 1 µM, first compound 0.0316 µM
[32] = second compound 1 µM, first compound 0.1 µM
[33] = second compound 1 µM, first compound 0.316 µM
[34] = second compound 1 µM, first compound 1 µM
[35] = second compound 1 µM, first compound 3.16 µM
[36] = second compound 1 µM, first compound 10 µM
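Further: spheroids exposed to compounds for seven days before viability read.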
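Wherever viability, T/C is given: luminescence used as a proxy for viable cell amount; percent viability relative to DMSO vehicle control as 100%.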

`C#Cc1c(F)ccc2cc(O)cc(-c3ncc4c(N5CC6CCC(C5)N6)nc(OCC56CCCN5CC(F)C6)nc4c3F)c12` (stereo unspecified) + COc1c(OCCCN2CCOCC2)ccc2c3n(c(=NC(=O)c4cnc(N)nc4)nc12)CCN3 gave an IC50 (second compound 0.00316 µM) of 807 nM, an IC50 (second compound 0.01 µM) of 507 nM and an IC50 (second compound 0.0316 µM) of 231 nM. For the same compound, the IC50 (second compound 0.1 µM) was 57.4 nM, the IC50 (second compound 0.316 µM) was less than 31.6 nM and the IC50 (second compound 1 µM) was less than 31.6 nM. It also gave a viability, T/C [1] of 91.4%, a viability, T/C [2] of 71.3% and a viability, T/C [3] of 60.9%. The viability, T/C [4] was 47.2%, the viability, T/C [5] was 39.9% and the viability, T/C [6] was 35.3%. For the same compound, the viability, T/C [7] was 79.8%, the viability, T/C [8] was 83.6% and the viability, T/C [9] was 55.4%. The viability, T/C [10] was 40.3%, the viability, T/C [11] was 31.1% and the viability, T/C [12] was 26.9%. The viability, T/C [13] was 68.7%, the viability, T/C [14] was 61.3% and the viability, T/C [15] was 45%. The viability, T/C [16] was 33.2%, the viability, T/C [17] was 25.8% and the viability, T/C [18] was 19%. The viability, T/C [19] was 55.1%, the viability, T/C [20] was 46% and the viability, T/C [21] was 29.6%. It also gave a viability, T/C [22] of 23.1%, a viability, T/C [23] of 16.4% and a viability, T/C [24] of 14.8%. For the same compound, the viability, T/C [25] was 35.3%, the viability, T/C [26] was 27.9% and the viability, T/C [27] was 19.7%. It also gave a viability, T/C [28] of 14%, a viability, T/C [29] of 10.6% and a viability, T/C [30] of 7.75%. For the same compound, the viability, T/C [31] was 15.9%, the viability, T/C [32] was 16.8% and the viability, T/C [33] was 11.1%. For the same compound, the viability, T/C [34] was 7.03%, the viability, T/C [35] was 5.65% and the viability, T/C [36] was 4.52%.
Work on `CC(Cn1ccc(-c2ccc(C#N)c(Cl)c2)n1)NC(=O)c1cc(C(C)O)[nH]n1` (stereo unspecified) + COc1c(OCCCN2CCOCC2)ccc2c3n(c(=NC(=O)c4cnc(N)nc4)nc12)CCN3 yielded an IC50 (second compound 0.00316 µM) greater than 10000 nM, an IC50 (second compound 0.01 µM) greater than 10000 nM and an IC50 (second compound 0.0316 µM) greater than 10000 nM. The IC50 (second compound 0.1 µM) was greater than 10000 nM, the IC50 (second compound 0.316 µM) was less than 31.6 nM and the IC50 (second compound 1 µM) was less than 31.6 nM. It also gave a viability, T/C [1] of 103%, a viability, T/C [2] of 91.1% and a viability, T/C [3] of 98%. It also gave a viability, T/C [4] of 99%, a viability, T/C [5] of 96.9% and a viability, T/C [6] of 102%. The viability, T/C [7] was 90.5%, the viability, T/C [8] was 97.2% and the viability, T/C [9] was 92.6%. The viability, T/C [10] was 93.1%, the viability, T/C [11] was 103% and the viability, T/C [12] was 89.7%. The viability, T/C [13] was 69.7%, the viability, T/C [14] was 79.4% and the viability, T/C [15] was 85.6%. It also gave a viability, T/C [16] of 80%, a viability, T/C [17] of 78.9% and a viability, T/C [18] of 78.7%. The viability, T/C [19] was 55%, the viability, T/C [20] was 56.6% and the viability, T/C [21] was 66.7%. It also gave a viability, T/C [22] of 64.8%, a viability, T/C [23] of 72.3% and a viability, T/C [24] of 56.1%. The viability, T/C [25] was 34.1%, the viability, T/C [26] was 38.9% and the viability, T/C [27] was 40%. For the same compound, the viability, T/C [28] was 41%, the viability, T/C [29] was 40.5% and the viability, T/C [30] was 39.9%. It also gave a viability, T/C [31] of 25.2%, a viability, T/C [32] of 17.5% and a viability, T/C [33] of 23%. It also gave a viability, T/C [34] of 18%, a viability, T/C [35] of 22.1% and a viability, T/C [36] of 17.5%.
Work on `CC1(C)CCC(Nc2ncc(C(F)(F)F)c(-c3c[nH]c4c(P(C)(C)=O)c(C#N)ccc34)n2)CN1` (stereo unspecified) + COc1c(OCCCN2CCOCC2)ccc2c3n(c(=NC(=O)c4cnc(N)nc4)nc12)CCN3 yielded an IC50 (second compound 0.00316 µM) of 5540 nM, an IC50 (second compound 0.01 µM) of 5120 nM and an IC50 (second compound 0.0316 µM) of 4480 nM. For the same compound, the IC50 (second compound 0.1 µM) was 3460 nM, the IC50 (second compound 0.316 µM) was less than 31.6 nM and the IC50 (second compound 1 µM) was less than 31.6 nM. It also gave a viability, T/C [1] of 106%, a viability, T/C [2] of 74.7% and a viability, T/C [3] of 80%. It also gave a viability, T/C [4] of 68.6%, a viability, T/C [5] of 86.3% and a viability, T/C [6] of 15%. The viability, T/C [7] was 91.2%, the viability, T/C [8] was 78.9% and the viability, T/C [9] was 75.2%. For the same compound, the viability, T/C [10] was 75.8%, the viability, T/C [11] was 76.4% and the viability, T/C [12] was 13.6%. For the same compound, the viability, T/C [13] was 71.8%, the viability, T/C [14] was 65.2% and the viability, T/C [15] was 63.7%. For the same compound, the viability, T/C [16] was 64.6%, the viability, T/C [17] was 66% and the viability, T/C [18] was 13%. It also gave a viability, T/C [19] of 59.5%, a viability, T/C [20] of 53.4% and a viability, T/C [21] of 52.1%. It also gave a viability, T/C [22] of 49.7%, a viability, T/C [23] of 53.7% and a viability, T/C [24] of 8.16%. The viability, T/C [25] was 34.6%, the viability, T/C [26] was 30.2% and the viability, T/C [27] was 34%. It also gave a viability, T/C [28] of 34%, a viability, T/C [29] of 28.5% and a viability, T/C [30] of 6.2%. It also gave a viability, T/C [31] of 17%, a viability, T/C [32] of 14.3% and a viability, T/C [33] of 15.9%. For the same compound, the viability, T/C [34] was 17%, the viability, T/C [35] was 15.1% and the viability, T/C [36] was 4.85%.
